Test results from PubChem BioAssay (NCI).
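Step 1: Grow cells in 96-well plates. Step 2: Expose to compound for 48 hours at 5 concentrations. Step 3: Interpolate endpoints linearly; if unreached, use highest concentration. At the GI50, growth is halved. TGI marks complete inhibition of growth.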

Tests used:
Test in all cases: NCI anticancer screen, dose series, 48 h
HCT-15 colon = tested on: HCT-15 colon
SK-OV-3 ovarian = tested on: SK-OV-3 ovarian
OVCAR-4 ovarian = tested on: OVCAR-4 ovarian
MDA-MB-435 = tested on: MDA-MB-435
CAKI-1 renal = tested on: CAKI-1 renal
TK-10 renal = tested on: TK-10 renal
CCRF-CEM leukemia = tested on: CCRF-CEM leukemia
RPMI-8226 leukemia = tested on: RPMI-8226 leukemia
HOP-92 NSCLC = tested on: HOP-92 NSCLC
MDA-MB-231 breast = tested on: MDA-MB-231 breast
PC-3 prostate = tested on: PC-3 prostate
OVCAR-3 ovarian = tested on: OVCAR-3 ovarian
HCT-116 colon = tested on: HCT-116 colon
SF-295 CNS = tested on: SF-295 CNS
SK-MEL-28 melanoma = tested on: SK-MEL-28 melanoma
HOP-62 NSCLC = tested on: HOP-62 NSCLC
MCF7 breast = tested on: MCF7 breast
HT29 colon = tested on: HT29 colon
UACC-62 melanoma = tested on: UACC-62 melanoma
NCI-H460 lung = tested on: NCI-H460 lung
HS 578T breast = tested on: HS 578T breast
MALME-3M melanoma = tested on: MALME-3M melanoma
NCI-H522 lung = tested on: NCI-H522 lung
EKVX NSCLC = tested on: EKVX NSCLC
IGROV1 ovarian = tested on: IGROV1 ovarian
SN12C renal = tested on: SN12C renal
DU-145 prostate = tested on: DU-145 prostate
MOLT-4 leukemia = tested on: MOLT-4 leukemia

O=C(CCCCCCC(=O)N/N=C/c1ccc(N(c2ccccc2)c2ccccc2)cc1)NO
TGI (HCT-15 colon): 12 µM
GI50 (SK-OV-3 ovarian): 1.6 µM
TGI (SK-OV-3 ovarian): 5.29 µM
GI50 (OVCAR-4 ovarian): 1.65 µM
TGI (OVCAR-4 ovarian): 8.72 µM
GI50 (MDA-MB-435): 3.16 µM
TGI (MDA-MB-435): 18.5 µM
GI50 (CAKI-1 renal): 0.201 µM
TGI (CAKI-1 renal): 1.24 µM
GI50 (TK-10 renal): 0.314 µM
TGI (TK-10 renal): 1.86 µM
GI50 (CCRF-CEM leukemia): 2.64 µM
TGI (CCRF-CEM leukemia): 16.4 µM
GI50 (RPMI-8226 leukemia): 1.88 µM
TGI (RPMI-8226 leukemia): 14 µM
GI50 (HOP-92 NSCLC): 1.67 µM
TGI (HOP-92 NSCLC): 4.25 µM
GI50 (MDA-MB-231 breast): 3.37 µM
TGI (MDA-MB-231 breast): 12.2 µM
GI50 (PC-3 prostate): 2.39 µM
TGI (PC-3 prostate): 10.7 µM
GI50 (OVCAR-3 ovarian): 1.45 µM
TGI (OVCAR-3 ovarian): 4.58 µM
GI50 (HCT-116 colon): 0.349 µM
TGI (HCT-116 colon): 1.97 µM
GI50 (SF-295 CNS): 1.77 µM
TGI (SF-295 CNS): 4.47 µM
GI50 (SK-MEL-28 melanoma): 3.06 µM
TGI (SK-MEL-28 melanoma): 11.6 µM
GI50 (HOP-62 NSCLC): 2.21 µM
TGI (HOP-62 NSCLC): 10.2 µM
GI50 (MCF7 breast): 0.601 µM
TGI (MCF7 breast): 11.3 µM
GI50 (HT29 colon): 2.26 µM
TGI (HT29 colon): 6.76 µM
GI50 (UACC-62 melanoma): 0.445 µM
TGI (UACC-62 melanoma): 1.98 µM
GI50 (NCI-H460 lung): 1.54 µM
TGI (NCI-H460 lung): 8.58 µM
GI50 (HS 578T breast): 6.14 µM
TGI (HS 578T breast): 31.2 µM
GI50 (MALME-3M melanoma): 3.25 µM
TGI (MALME-3M melanoma): 15 µM
GI50 (NCI-H522 lung): 1.92 µM
TGI (NCI-H522 lung): 6.92 µM
GI50 (EKVX NSCLC): 3.82 µM
TGI (EKVX NSCLC): 15.2 µM
GI50 (IGROV1 ovarian): 0.505 µM
TGI (IGROV1 ovarian): 2.74 µM
GI50 (SN12C renal): 2.94 µM
TGI (SN12C renal): 13.5 µM
GI50 (DU-145 prostate): 2.43 µM
TGI (DU-145 prostate): 8.13 µM
GI50 (MOLT-4 leukemia): 1.88 µM
TGI (MOLT-4 leukemia): 10.3 µM
